US10428083B2, “Heterocyclylmethyl-thienouracile as antagonists of the adenosine-A2B-receptor” (BAYER PHARMA AKTIENGESELLSCHAFT, priority 2015, dated 2019)
Read-outs that look alike come from different tables or passages of the source.

Target: human adenosine A2b receptor (Homo sapiens (Human), UniProt P29275)
Assay: Cellular in vitro reporter gene test for A2b receptor activity (CHO-K1, CRE-luciferase, NECA stimulation)
Assay type: cell-based
Method in brief: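 CHO-K1 cells with CRE-driven luciferase; antagonists co-incubated with NECA at its EC50, determined in a pre-experiment on each test day. Luciferase read by luminescence 3 h after NECA addition.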

[1] = recombinant CHO-K1 cell line, CRE-luciferase reporter, antagonism of EC50 concentration of NECA, in some cases means of several determinations, rounded to two significant figures, read-out: A2b receptor IC50

Chain of human adenosine A2b receptor (P29275 whole entry): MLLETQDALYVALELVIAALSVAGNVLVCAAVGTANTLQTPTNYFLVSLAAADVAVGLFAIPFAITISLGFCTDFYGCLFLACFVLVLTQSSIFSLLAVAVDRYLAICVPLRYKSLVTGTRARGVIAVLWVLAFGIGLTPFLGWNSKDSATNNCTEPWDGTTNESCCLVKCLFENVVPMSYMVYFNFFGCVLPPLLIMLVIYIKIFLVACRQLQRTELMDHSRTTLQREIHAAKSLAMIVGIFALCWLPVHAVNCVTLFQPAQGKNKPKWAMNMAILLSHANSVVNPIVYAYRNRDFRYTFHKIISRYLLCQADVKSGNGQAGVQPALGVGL

SMILES	IC50 [1]	IC50
CCn1c(=O)c2c(C)c(CN3CCNC(=O)C3=O)sc2n(CC2CCCO2)c1=O (single isomer, unassigned) [Example 477, 6-[(2,3-Dioxopiperazin-1-yl)methyl]-3-ethyl-5-methyl-1-(tetrahydrofuran-2-ylmethyl)thieno[2,3-d]pyrimidine-2,4(1H,3H)-dione]	270 nM	
COC(=O)N=C1NCCN1Cc1sc2c(c1C)c(=O)n(CC(F)(F)F)c(=O)n2CC1CCCO1 (single isomer, unassigned) [Example 468, Methyl [1-{[5-methyl-2,4-dioxo-1-(tetrahydrofuran-2-ylmethyl)-3-(2,2,2-trifluoroethyl)-1,2,3,4-tetrahydrothieno[2,3-d]pyrimidin-6-yl]methyl}imidazolidin-2-ylidene]carbamate]	6.1 nM	
Cc1c(CN2CCNC2=NC#N)sc2c1c(=O)n(CC(C)(C)C)c(=O)n2CCCF [Example 444, [1-{[3-(2,2-Dimethylpropyl)-1-(3-fluoropropyl)-5-methyl-2,4-dioxo-1,2,3,4-tetrahydrothieno[2,3-d]pyrimidin-6-yl]methyl}imidazolidin-2-ylidene]cyanamide]	11 nM	
Cc1c(CN2CCNC2=S)sc2c1c(=O)n(CC(F)F)c(=O)n2CC1COC1 [Example 165, 3-(2,2-Difluoroethyl)-5-methyl-1-(oxetan-3-ylmethyl)-6-[(2-thioxoimidazolidin-1-yl)methyl]thieno[2,3-d]pyrimidine-2,4(1H,3H)-dione]	6.5 nM	
COCCn1c(=O)n(C(C)C(F)(F)F)c(=O)c2c(C)c(Cn3nc[nH]c3=O)sc21 (racemic) [Example 438, 1-(2-Methoxyethyl)-5-methyl-6-[(5-oxo-4,5-dihydro-1H-1,2,4-triazol-1-yl)methyl]-3-(1,1,1-trifluoropropan-2-yl)thieno[2,3-d]pyrimidine-2,4(1H,3H)-dione]		150 nM
C=CCn1cnn(Cc2sc3c(c2C)c(=O)n(CC)c(=O)n3CCCF)c1=O [Example 350, 6-[(4-Allyl-5-oxo-4,5-dihydro-1H-1,2,4-triazol-1-yl)methyl]-3-ethyl-1-(3-fluoropropyl)-5-methylthieno[2,3-d]pyrimidine-2,4(1H,3H)-dione]	210 nM	
COCCn1c(=O)n(CCC(F)(F)F)c(=O)c2c(C)c(CN3CCN(C)C3=O)sc21 [Example 337, 1-(2-Methoxyethyl)-5-methyl-6-[(3-methyl-2-oxoimidazolidin-1-yl)methyl]-3-(3,3,3-trifluoropropyl)thieno[2,3-d]pyrimidine-2,4(1H,3H)-dione]	280 nM	
Cc1c(CN2CCNC2=S)sc2c1c(=O)n(CC(F)F)c(=O)n2CC1CCCO1 (racemic) [Example 162, 3-(2,2-Difluoroethyl)-5-methyl-1-(tetrahydrofuran-2-ylmethyl)-6-[(2-thioxoimidazolidin-1-yl)methyl]thieno[2,3-d]pyrimidine-2,4(1H,3H)-dione]	7.9 nM	
CCOCCn1c(=O)c2c(C)c(CN3CCNC(=O)C3=O)sc2n(CCCF)c1=O [Example 492, 6-[(2,3-Dioxopiperazin-1-yl)methyl]-3-(2-ethoxyethyl)-1-(3-fluoropropyl)-5-methylthieno[2,3-d]pyrimidine-2,4(1H,3H)-dione]	250 nM	
COCCn1c(=O)c2c(C)c(CN3CCNC3=NC(=O)OC)sc2n(CC2CCCO2)c1=O (single isomer, unassigned) [Example 391, Methyl [1-f{[3-(2-methoxyethyl)-5-methyl-2,4-dioxo-1-(tetrahydrofuran-2-ylmethyl)-1,2,3,4-tetrahydrothieno[2,3-d]pyrimidin-6-yl]methyl}imidazolidin-2-ylidene]carbamate]	34 nM	
COC(=O)N=C1NCCN1Cc1sc2c(c1C)c(=O)n(C(C)C)c(=O)n2CCC(F)(F)F [Example 377, Methyl [1-{[3-isopropyl-5-methyl-2,4-dioxo-1-(3,3,3-trifluoropropyl)-1,2,3,4-tetrahydrothieno[2,3-d]pyrimidin-6-yl]methyl}imidazolidin-2-ylidene]carbamate]	3.4 nM	
Cc1c(Cn2nc[nH]c2=O)sc2c1c(=O)n(CC(C)(C)C)c(=O)n2CCC(F)(F)F [Example 427, 3-(2,2-Dimethylpropyl)-5-methyl-6-[(5-oxo-4,5-dihydro-1H-1,2,4-triazol-1-yl)methyl]-1-(3,3,3-trifluoropropyl)thieno[2,3-d]pyrimidine-2,4(1H,3H)-dione]	37 nM	
Cc1c(Cn2nc[nH]c2=O)sc2c1c(=O)n(C(C)C)c(=O)n2CCC(F)(F)F [Example 253, 3-Isopropyl-5-methyl-6-[(5-oxo-4,5-dihydro-1H-1,2,4-triazol-1-yl)methyl]-1-(3,3,3-trifluoropropyl)thieno[2,3-d]pyrimidine-2,4(1H,3H)-dione]	9.9 nM	
CCn1c(=O)c2c(C)c(Cn3nc[nH]c3=O)sc2n(CC2CCCO2)c1=O (single isomer, unassigned) [Example 421, 3-Ethyl-5-methyl-6-[(5-oxo-4,5-dihydro-1H-1,2,4-triazol-1-yl)methyl]-1-(tetrahydrofuran-2-ylmethyl)thieno[2,3-d]pyrimidine-2,4(1H,3H)-dione]	71 nM	
CCn1c(=O)c2c(C)c(C(C)N3CCNC3=O)sc2n(CCC(F)(F)F)c1=O (single isomer, unassigned) [Example 503, 3-Ethyl-5-methyl-6-[1-(2-oxoimidazolidin-1-yl)ethyl]-1-(3,3,3-trifluoropropyl)thieno[2,3-d]pyrimidine-2,4(1H,3H)-dione]	39 nM	
CCOCCn1c(=O)c2c(C)c(CN3CCNC3=S)sc2n(CCOC)c1=O [Example 302, 3-(2-Ethoxyethyl)-1-(2-methoxyethyl)-5-methyl-6-[(2-thioxoimidazolidin-1-yl)methyl]thieno[2,3-d]pyrimidine-2,4(1H,3H)-dione]	14 nM	
COCCn1c(=O)n(CC(C)(C)OC)c(=O)c2c(C)c(CN3CCNC3=S)sc21 [Example 172, 1-(2-Methoxyethyl)-3-(2-methoxy-2-methylpropyl)-5-methyl-6-[(2-thioxoimidazolidin-1-yl)methyl]thieno[2,3-d]pyrimidine-2,4(1H,3H)-dione]	7.3 nM	
CCn1c(=O)c2c(C)c(CN3CCNC3=O)sc2n(CCCCF)c1=O [Example 52, 3-Ethyl-1-(4-fluorobutyl)-5-methyl-6-[(2-oxoimidazolidin-1-yl)methyl]thieno[2,3-d]pyrimidine-2,4(1H,3H)-dione]	6.6 nM	
CCn1c(=O)c2c(C)c(CN3CCNC3=O)sc2n(CC2COC2)c1=O [Example 72, 3-Ethyl-5-methyl-1-(oxetan-3-ylmethyl)-6-[(2-oxoimidazolidin-1-yl)methyl]thieno[2,3-d]pyrimidine-2,4(1H,3H)-dione]	8.1 nM	
Cc1c(CN2CCNC2=O)sc2c1c(=O)n(CC(F)(F)F)c(=O)n2CC1COC1 [Example 212, 5-Methyl-1-(oxetan-3-ylmethyl)-6-[(2-oxoimidazolidin-1-yl)methyl]-3-(2,2,2-trifluoroethyl)thieno[2,3-d]pyrimidine-2,4(1H,3H)-dione]	17 nM	
Cc1c(Cn2cc[nH]c2=O)sc2c1c(=O)n(C(C)C)c(=O)n2CC1CCCO1 (single isomer, unassigned) [Example 249, 3-Isopropyl-5-methyl-6-[(2-oxo-2,3-dihydro-1H-imidazol-1-yl)methyl]-1-(tetrahydrofuran-2-ylmethyl)thieno[2,3-d]pyrimidine-2,4(1H,3H)-dione]	41 nM	
Cc1c(CN2CCNC2=O)sc2c1c(=O)n(CC(F)(F)F)c(=O)n2C [Example 213, 1,5-Dimethyl-6-[(2-oxoimidazolidin-1-yl)methyl]-3-(2,2,2-trifluoroethyl)thieno[2,3-d]pyrimidine-2,4(1H,3H)-dione]	7.6 nM	
Cc1c(CN2CCNC2=O)sc2c1c(=O)n(CC(C)C)c(=O)n2CC1CCO1 (single isomer, unassigned) [Example 196, 3-Isobutyl-5-methyl-1-(oxetan-2-ylmethyl)-6-[(2-oxoimidazolidin-1-yl)methyl]thieno[2,3-d]pyrimidine-2,4(1H,3H)-dione]	6.5 nM	
CCn1c(=O)c2c(C)c(CN3CCNC3=O)sc2n(CCC(C)C)c1=O [Example 79, 3-Ethyl-5-methyl-1-(3-methylbutyl)-6-[(2-oxoimidazolidin-1-yl)methyl]thieno[2,3-d]pyrimidine-2,4(1H,3H)-dione]	9.9 nM	
CCN1CCN(Cc2sc3c(c2C)c(=O)n(CCc2ccccc2)c(=O)n3CCOC)C1=O [Example 239, 6-[(3-Ethyl-2-oxoimidazolidin-1-yl)methyl]-1-(2-methoxyethyl)-5-methyl-3-(2-phenylethyl)thieno[2,3-d]pyrimidine-2,4(1H,3H)-dione]	11 nM	
COCCn1c(=O)c2c(C)c(CN3CCNC3=NC#N)sc2n(CCOC)c1=O [Example 363, [1-{[1,3-Bis(2-methoxyethyl)-5-methyl-2,4-dioxo-1,2,3,4-tetrahydrothieno[2,3-d]pyrimidin-6-yl]methyl}imidazolidin-2-ylidene]cyanamide]	19 nM	
Cc1c(Cn2nc[nH]c2=O)sc2c1c(=O)n(C(C)C)c(=O)n2CF [Example 422, 1-(Fluoromethyl)-3-isopropyl-5-methyl-6-[(5-oxo-4,5-dihydro-1H-1,2,4-triazol-1-yl)methyl]thieno[2,3-d]pyrimidine-2,4(1H,3H)-dione]	170 nM	
Cc1c(CN2CCNC2=O)sc2c1c(=O)n(C(C)C)c(=O)n2CF [Example 313, 1-(Fluoromethyl)-3-isopropyl-5-methyl-6-[(2-oxoimidazolidin-1-yl)methyl]thieno[2,3-d]pyrimidine-2,4(1H,3H)-dione]	41 nM	
COCCn1c(=O)n(CC2CC2)c(=O)c2c(C)c(CN3CCNC3=O)sc21 [Example 92]	9.7 nM	
C=C(Cn1c(=O)n(CC)c(=O)c2c(C)c(CN3CCNC3=O)sc21)C(F)(F)F [Example 53, 3-Ethyl-5-methyl-6-[(2-oxoimidazolidin-1-yl)methyl]-1-[2-(trifluoromethyl)prop-2-en-1-yl]thieno[2,3-d]pyrimidine-2,4(1H,3H)-dione]	14 nM	
